Where two headings read alike, the source gives them in different places.
Assays:
full-length Aurora B = target: T1, full-length Aurora B (Homo sapiens, UniProt Q96GD4); experiment: Surface plasmon resonance binding kinetics, Aurora B; conditions: SPR
T1 construct: to the kinase domain of TTK and full-length Aurora B; purchased Carna Biosciences, Inc., Kobe, Japan; host or cells: Sf9 insect cells
From the text: Originally, the compound was identified in a phenotypic screen for molecules that can induce stem-cell like phenotypes. Later this property was attributed to its ability to inhibit the mitotic kinase Aurora B [39].

[1] = test system: DoTc2 4510 cervix carcinoma cell line; experiment: Cell proliferation assay (ATPlite), DoTc2 4510; type: cell-based, human; conditions: 5 day proliferation assay
Method: (§1) Cell proliferation assays were carried out as described using ATPlite 1step™ (Perkin Elmer, Groningen, The Netherlands). Exposure time was 72 or 120 hours as indicated in the Legends to the Figures. Percentage growth was calculated, relative to the growth of unexposed cells, and relative IC50s were fitted using a four-parameter logistics curve (XLfit 5.3, IDBS). For Figure 4A and 7 dose response curves were redrawn in Prism. To compare the inhibitory potency of compounds in proliferation assays with HCT 116 parental and tetraploid clones, pIC50 (−^10logIC50) values were compared in three independent experiments. A two-tailed Student's t-test was performed to determine whether differences in sensitivity (ΔpIC50) were statistically significant. Caspase 3/7 activity of cancer cells was measured using Caspase-Glo 3/7 Assay kit (cat no. G8093, Promega, Madison USA). Viability of T-ALL cell samples was determined using ATPlite and exposure of 72 hours as described previously.

[2] = test system: OVCAR-3 ovary adenocarcinoma cell line; experiment: Cell proliferation assay (ATPlite), OVCAR-3; type: cell-based, human; conditions: 5 day proliferation assay
Method: as §1

[3] = test system: post-tetraploid HPT1 cells; experiment: Cell proliferation assay, post-tetraploid HPT1; type: cell-based, human; conditions: HPT1, five days
Method: (§2) Cancer cell lines and hTERT-RPE1 retinal pigment epithelial cells were purchased from the American Type Culture Collection (ATCC) (Manassas, VA, U.S.A.) from 2011 to 2014 [41] and cultured in ATCC-recommended media. All experiments were carried out within nine passages of the original vials from ATCC who authenticated the cancer cell lines by short tandem repeat analysis. We verified the mutant status of seven frequently mutated cancer genes (i.e., BRAF, CDKN2A, CTNNB1, EGFR, KRAS, PIK3CA and TP53) by full exome or targeted sequencing. Sequencing results were compared to COSMIC version 75 of the Genomics of Drug Sensitivity in Cancer data base and provided additional authentication of the identity of the cell lines. The isolation and characterization of post-tetraploid clones from HCT 116 has been described previously. The mutation status of the CDKN2A, CTNNB1, KRAS and PIK3CA genes were confirmed by sequence analysis in both the HCT 116 parental cell line and post-tetraploid clones. All experiments were carried out within nine passages of the original cell stocks that were transferred from the Max Planck Institute of Biochemistry (Martinsried, Germany) to Netherlands Translational Research Center.
as §1

[4] = test system: post-tetraploid HPT4 cells; experiment: Cell proliferation assay, post-tetraploid HPT4; type: cell-based, human; conditions: HPT4, five days
Method: as §2, §1

[5] = test system: HCT 116 vs HPT1, -2 and -4; experiment: Drug sensitivity analysis, HCT116 diploid versus tetraploids; type: cell-based, human
Method: as §1

[6] = test system: pediatric T-ALL patient cell samples; experiment: Viability assays with T-ALL patient samples; type: cell-based, human; conditions: read-out: IC50
Method: Written informed consent was obtained from the parents or legal guardians of each T-ALL patient to use excess diagnostic material for research purposes. The study was performed in accordance with the Institutional Review Board of the Erasmus Medical Center Rotterdam (The Netherlands) and in accordance with the Declaration of Helsinki. Leukemic cells were harvested from blood or bone marrow samples and were enriched to ≥ 90% purity.
as §1

[7] = test system: HCT 116, HPT1, HPT2 and HPT4 cells; experiment: Time-lapse microscopy, HCT 116 and post-tetraploid clones; type: cell-based, human; conditions: 100 nM, post-tetraploid clones and parental cell line
Method: HCT 116 diploid and tetraploids stably expressed green fluorescent protein-tagged histone 2B (H2B-GFP). All other cell lines were pre-incubated with SiR-DNA (Spirochrome, Switzerland) in order to visualize DNA. Cells were cultured in Leibovitz L15 CO2-independent cell culture medium in 6-well glass bottom chamber (LabTek Corp., Australia) and synchronized by treatment with 2 mM thymidine. After 24 hours of synchronization, and 4 hours before the start of the imaging experiment, medium was replaced by medium without thymidine. […] Image Z-stacks were acquired with 3-μm intervals using a sCMOS camera (DeltaVision RT; Applied Precision, GE Healthcare, Issaquah, WA) and processed using ImageJ software (NIH, Bethesda, MD, USA). Chromosome mis-segregation phenotypes co-occurred and many combinations existed. For clarity, all the events were scored and included: more than two phenotypes, mitotic slippage, DNA bridge, micro-nuclei and multipolar spindle.

[8] = test system: HCT 116 parental cells or tetraploids; experiment: Colony formation assay; type: cell-based, human; conditions: pre-treated 4 days with 100 nM, reseeded
Method: After 4 days, the cells were washed with phosphate-buffered saline (PBS) and allowed to recover for 24 hours. The remaining cells were collected and plated at a density of 1000 cells per well in a 96-well plate. After ten days, cells were fixed with 96% methanol for 20 minutes, washed with PBS and stained with 0.1% (w/v) crystal violet over-night. Plates were washed in tap water and allowed to dry before scanning and analysis with ImageJ software (NIH, Bethesda, MD, USA).

[9] = test system: HCT 116 colon carcinoma cell line; conditions: three day cell proliferation assay; cited from earlier work
[10] = test system: LoVo colorectal adenocarcinoma cell line; conditions: three day cell proliferation assay; cited from earlier work
[11] = test system: A-172 glioblastoma cell line; conditions: three day cell proliferation assay; cited from earlier work
[12] = test system: MG-63 osteosarcoma cell line; conditions: three day cell proliferation assay; cited from earlier work
[13] = test system: 66 cancer cell lines (44 cell lines); set-up: method as in earlier work; conditions: cited from earlier work
[14] = toxicity studies in mice; cited from earlier work
[15] = geometric average of three experiments

T1 sequence (Q96GD4 whole entry, the tested form may be a part): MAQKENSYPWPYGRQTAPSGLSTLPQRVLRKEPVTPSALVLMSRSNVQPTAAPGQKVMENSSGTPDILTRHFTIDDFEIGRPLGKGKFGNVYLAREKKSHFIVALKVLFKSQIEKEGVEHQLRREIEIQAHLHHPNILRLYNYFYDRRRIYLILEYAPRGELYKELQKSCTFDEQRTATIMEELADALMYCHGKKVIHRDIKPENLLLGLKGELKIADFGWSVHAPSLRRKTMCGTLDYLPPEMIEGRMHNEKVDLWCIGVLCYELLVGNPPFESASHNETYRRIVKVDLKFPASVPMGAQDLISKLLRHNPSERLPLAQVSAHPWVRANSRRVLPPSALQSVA

**Q.** For `CCc1cccc(CC)c1NC(=O)c1ccn2c1CCc1cnc(Nc3ccc(N4CCN(C)CC4)cc3OC)nc1-2` [NTRC 0066-0], which Kd (full-length Aurora B; KD = kd/ka) is on record?
**A.** The Kd was 907 nM.

**Q.** What about the ka (full-length Aurora B; geometric average) of the same compound?
**A.** Its ka is 13400 M⁻¹ s⁻¹.

**Q.** What about the kd (full-length Aurora B; geometric average) of the same compound?
**A.** Its kd is 0.0122 s⁻¹.

**Q.** And the IC50 [1]?
**A.** The IC50 was 225 nM.

**Q.** And the IC50 [2]?
**A.** Its IC50 is 268 nM.

**Q.** And the “Efficacy (%)” value ([3]; average of three experiments)?
**A.** Its value is 59%.

**Q.** What about the IC50 [3, 15] of the same compound?
**A.** Its IC50 is 40 nM.

**Q.** And the “Efficacy (%)” value ([4]; average of three experiments)?
**A.** The value was 48%.

**Q.** What about the IC50 [4, 15] of the same compound?
**A.** The IC50 was 44 nM.

**Q.** What about the “Δeff. (%)” value ([5]; HCT 116 vs HPT1, -2 and -4) of the same compound?
**A.** Its value is −33%.

**Q.** What about the “Phenotype (efficacy)” value ([5]; HCT 116 vs HPT1, -2 and -4, based on % effect) of the same compound?
**A.** Its value is “resistant”.

**Q.** What about the “Phenotype (potency)” value ([5]; HCT 116 vs HPT1, -2 and -4, 'resistant' indicates that tetraploids are resistant) of the same compound?
**A.** The value was “sensitive”.

**Q.** What about the ΔpIC50 ([5]; average log shift in sensitivity between parental and tetraploids) of the same compound?
**A.** Its ΔpIC50 is −0.01.

**Q.** What about the IC50 ([6]; all ten T-ALL patient samples, three days) of the same compound?
**A.** Its IC50 is ≥ 5000 nM.

**Q.** What about the IC50 ([6]; patient sample 491, three-day assay) of the same compound?
**A.** Its IC50 is 5000 nM.

**Q.** And the IC50 ([6]; patient sample 1033, three-day assay)?
**A.** The IC50 was 5100 nM.

**Q.** What about the IC50 ([6]; patient sample 1816, three-day assay) of the same compound?
**A.** The IC50 was 8100 nM.

**Q.** And the IC50 ([6]; patient sample 2323, three-day assay)?
**A.** The IC50 was 7100 nM.

**Q.** What about the IC50 ([6]; patient sample 3594, three-day assay) of the same compound?
**A.** Its IC50 is 4800 nM.

**Q.** And the IC50 ([6]; patient sample 3852, three-day assay)?
**A.** The IC50 was 4900 nM.

**Q.** And the IC50 ([6]; patient sample 4023, three-day assay)?
**A.** The IC50 was 5400 nM.

**Q.** What about the IC50 ([6]; patient sample 4126, three-day assay) of the same compound?
**A.** Its IC50 is 9200 nM.

**Q.** And the IC50 ([6]; patient sample 4992, three-day assay)?
**A.** The IC50 was 4900 nM.

**Q.** And the IC50 ([6]; patient sample 10110, three-day assay)?
**A.** The IC50 was 4500 nM.

**Q.** What about the time-in-mitosis [7] of the same compound?
**A.** Its time-in-mitosis is 20 min.

**Q.** What about the “proliferation after compound wash-out (colony formation)” value [8] of the same compound?
**A.** The value was “unable to fully resume proliferation”.

**Q.** What about the IC50 [9] of the same compound?
**A.** Its IC50 is 37 nM.

**Q.** And the IC50 [10]?
**A.** Its IC50 is 40 nM.

**Q.** And the IC50 [11]?
**A.** Its IC50 is 51 nM.

**Q.** What about the IC50 [12] of the same compound?
**A.** The IC50 was 135 nM.

**Q.** And the IC50 ([13]; 3 days, geometric average in 44 cell lines)?
**A.** Its IC50 is 67 nM.

**Q.** What about the IC50 ([13]; 5 days, geometric average in 66 cancer cell lines) of the same compound?
**A.** The IC50 was 98 nM.

**Q.** What about the “effect on bone marrow or blood cell count (hematological toxicity)” value [14] of the same compound?
**A.** The value was “no effect on bone marrow or blood cell count”.

Reference: article PMC5503534, “Stable aneuploid tumors cells are more sensitive to TTK inhibition than chromosomally unstable cell lines” (Oncotarget, 2017)
